{"source": "patent US11123398B2", "about": "“Chemotherapeutic combinations of cationic antimicrobial peptides and chemotherapeutics” (LYTIX BIOPHARMA AS, priority 2014, dated 2021)", "key": {"Raji cell line": {"tested_on": "Raji cell line", "format": "cell-based, human", "settings": "4 h", "experimental": "(§1) Tumor cells were plated in 96-well flat-bottom microtitration plates (Nunc, Dutscher, Brumath, France) and incubated at 37° C. for 24 hours before treatment in 190 μl of drug-free and FBS-free culture medium.\n(§2) Tumor cells were incubated for 4 hours with 10 concentrations of compounds in ¼ dilution step with a top dose of 400 μM (range 4×10^−4 to […]), with 1% (final concentration) Triton X-100 as positive control and FBS-free culture medium as negative control. The cells (190 μl) were incubated in a 200 μl final volume of FBS-free culture medium containing test substances at 37° C. under 5% CO2.\n(§3) Three independent experiments were performed, each concentration being issued from quadruplicate. Control cells were treated with vehicle alone. At the end of treatments, the cytotoxic activity was evaluated by a MTS assay (see § 3.3 below).\n(§4) Like MTT, MTS is bioreduced by cells into a formazan product that is directly soluble in culture medium without processing, unlike MTT.\n(§5) At the end of the cells treatment, 40 μl of a 0.22 μm filtered freshly combined solution of MTS (20 ml at 2 mg/ml, Ref G1111, Batch 235897, Exp March 2009, Promega, Charbonnières, France) and PMS (1 ml at 0.92 mg/ml, Ref P9625, Batch 065K0961, Sigma) in Dulbecco's Phosphate Buffered Saline (DPBS, Ref 17-513Q, Batch 6MB0152, Cambrex), were added in each well. Culture plates were incubated for 2 h at 37° C. Absorbency (OD) were measured at 490 nm in each well using VICTOR^3™ 1420 multilabeled counter (Wallac, PerkinElmer, Courtaboeuf, France).\n(§6) 4.1. IC50 Data was Determined as in Example 1"}, "U-937 cell line": {"tested_on": "U-937 cell line", "format": "cell-based, human", "settings": "4 h", "experimental": "as §1, §2, §3, §4, §5, §6"}}, "note": "Non-standard residues stand in square brackets, D forms with d. Residues, ends and D or L forms follow the SMILES beside them. Dip = N[C@H](C(=O)O)C(c1ccccc1)c1ccccc1", "data": [{"smiles": "NCCCC[C@H](NC(=O)[C@@H](NC(=O)[C@H](Cc1c[nH]c2ccccc12)NC(=O)[C@H](CCCCN)NC(=O)[C@H](CCCCN)NC(=O)[C@H](Cc1c[nH]c2ccccc12)NC(=O)[C@H](Cc1c[nH]c2ccccc12)NC(=O)[C@H](CCCCN)NC(=O)[C@@H](N)CCCCN)C(c1ccccc1)c1ccccc1)C(N)=O", "note": "[LTX-315, K-K-W-W-K-K-W-Dip-K-NH2] (H-KKWWKKW[Dip]K-NH2)", "values": [{"measurement": "IC50", "setting": "Raji cell line", "result": "4.93 ± 1.03", "unit": "µM"}, {"measurement": "IC50", "setting": "U-937 cell line", "result": "1.15 ± 0.42", "unit": "µM"}]}]}
